Test results published in paper PMC7475166 (Journal of medicinal chemistry, 2015).

Key:
[1] = target: Bcr-Abl^T315I in Ba/F3 cells (Homo sapiens, UniProt P00519+P11274, T315I); conditions: 500 nM, 3 h, immunoblot
[2] = target: Bcr-Abl^WT in Ba/F3 cells (Homo sapiens, UniProt P00519+P11274); conditions: 500 nM, 3 h, immunoblot
TrkA = TrkA (Homo sapiens, UniProt P04629); assay: SelectScreen Kinase Profiling; assay type: biochemical
[3] = test system: diverse set of 66 kinases; assay: SelectScreen Kinase Profiling, whole panel; assay type: biochemical; conditions: 50 nM
CSF1R = CSF1R (Homo sapiens, UniProt P07333); assay: SelectScreen Kinase Profiling; assay type: biochemical; conditions: read-out: inhibition of CSF1R
Chain of CSF1R (P07333 20-972): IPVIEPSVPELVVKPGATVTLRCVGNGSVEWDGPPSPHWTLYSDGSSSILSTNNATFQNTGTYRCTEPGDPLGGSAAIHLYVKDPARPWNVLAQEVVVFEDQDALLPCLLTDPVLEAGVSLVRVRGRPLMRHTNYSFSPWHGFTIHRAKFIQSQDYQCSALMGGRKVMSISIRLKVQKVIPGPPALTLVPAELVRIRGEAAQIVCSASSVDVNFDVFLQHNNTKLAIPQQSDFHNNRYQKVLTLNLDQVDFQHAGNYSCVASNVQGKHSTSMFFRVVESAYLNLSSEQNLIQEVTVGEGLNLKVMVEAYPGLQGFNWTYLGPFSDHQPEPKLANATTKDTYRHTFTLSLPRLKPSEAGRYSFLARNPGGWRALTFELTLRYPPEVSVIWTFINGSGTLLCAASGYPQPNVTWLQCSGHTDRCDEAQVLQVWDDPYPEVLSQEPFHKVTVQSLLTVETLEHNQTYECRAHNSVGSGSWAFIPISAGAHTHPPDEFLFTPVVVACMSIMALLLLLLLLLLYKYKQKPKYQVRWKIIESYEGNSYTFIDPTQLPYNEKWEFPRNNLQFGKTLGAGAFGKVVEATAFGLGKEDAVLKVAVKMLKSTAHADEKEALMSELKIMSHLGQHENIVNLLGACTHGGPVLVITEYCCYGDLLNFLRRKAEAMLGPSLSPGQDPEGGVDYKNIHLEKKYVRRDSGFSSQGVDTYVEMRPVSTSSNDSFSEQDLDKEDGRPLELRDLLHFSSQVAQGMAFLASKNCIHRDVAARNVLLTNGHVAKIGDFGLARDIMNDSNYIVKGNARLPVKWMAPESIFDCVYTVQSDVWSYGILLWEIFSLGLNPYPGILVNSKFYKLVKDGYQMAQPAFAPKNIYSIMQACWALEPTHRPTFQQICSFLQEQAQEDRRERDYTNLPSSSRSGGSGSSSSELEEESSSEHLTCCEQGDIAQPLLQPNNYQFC

Blk = Blk (Homo sapiens, UniProt P51451); assay: SelectScreen Kinase Profiling; assay type: biochemical
Chain of Blk (P51451 whole entry): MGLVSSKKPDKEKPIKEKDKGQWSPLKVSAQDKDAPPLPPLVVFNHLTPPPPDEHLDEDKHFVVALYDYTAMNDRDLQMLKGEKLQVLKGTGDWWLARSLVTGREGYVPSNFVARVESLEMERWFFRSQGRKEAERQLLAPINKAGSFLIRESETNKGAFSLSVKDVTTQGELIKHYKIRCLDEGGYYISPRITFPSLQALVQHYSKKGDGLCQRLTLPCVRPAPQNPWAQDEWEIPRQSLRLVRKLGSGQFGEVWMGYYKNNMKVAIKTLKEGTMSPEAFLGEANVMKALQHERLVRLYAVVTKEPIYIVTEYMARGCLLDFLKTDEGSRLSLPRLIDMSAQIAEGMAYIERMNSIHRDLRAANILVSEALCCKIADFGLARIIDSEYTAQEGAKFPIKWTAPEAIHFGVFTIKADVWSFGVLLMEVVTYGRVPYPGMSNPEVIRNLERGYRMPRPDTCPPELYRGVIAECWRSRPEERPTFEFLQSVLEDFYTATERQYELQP

Yes1 = Yes1 (Homo sapiens, UniProt P07947); assay: SelectScreen Kinase Profiling; assay type: biochemical; conditions: read-out: inhibition of Yes1
Chain of Yes1 (P07947 whole entry): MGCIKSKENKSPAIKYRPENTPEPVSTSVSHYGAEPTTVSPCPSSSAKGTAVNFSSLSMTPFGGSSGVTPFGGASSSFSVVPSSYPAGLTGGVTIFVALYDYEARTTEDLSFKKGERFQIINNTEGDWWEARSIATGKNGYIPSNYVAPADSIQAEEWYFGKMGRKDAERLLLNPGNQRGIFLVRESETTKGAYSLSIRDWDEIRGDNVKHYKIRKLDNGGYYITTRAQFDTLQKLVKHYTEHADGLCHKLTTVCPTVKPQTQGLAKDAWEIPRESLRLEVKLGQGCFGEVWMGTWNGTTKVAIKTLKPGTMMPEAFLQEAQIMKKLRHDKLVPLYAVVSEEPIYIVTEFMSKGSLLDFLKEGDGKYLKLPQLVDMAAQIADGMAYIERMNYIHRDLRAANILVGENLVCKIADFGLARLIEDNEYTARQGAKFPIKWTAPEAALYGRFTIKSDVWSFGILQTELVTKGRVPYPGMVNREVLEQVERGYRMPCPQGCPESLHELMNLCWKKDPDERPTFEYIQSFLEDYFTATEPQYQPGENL

MUSK = target: T1, MUSK (Homo sapiens, UniProt O15146); assay: SelectScreen Kinase Profiling; assay type: biochemical
T1 sequence (O15146 24-869): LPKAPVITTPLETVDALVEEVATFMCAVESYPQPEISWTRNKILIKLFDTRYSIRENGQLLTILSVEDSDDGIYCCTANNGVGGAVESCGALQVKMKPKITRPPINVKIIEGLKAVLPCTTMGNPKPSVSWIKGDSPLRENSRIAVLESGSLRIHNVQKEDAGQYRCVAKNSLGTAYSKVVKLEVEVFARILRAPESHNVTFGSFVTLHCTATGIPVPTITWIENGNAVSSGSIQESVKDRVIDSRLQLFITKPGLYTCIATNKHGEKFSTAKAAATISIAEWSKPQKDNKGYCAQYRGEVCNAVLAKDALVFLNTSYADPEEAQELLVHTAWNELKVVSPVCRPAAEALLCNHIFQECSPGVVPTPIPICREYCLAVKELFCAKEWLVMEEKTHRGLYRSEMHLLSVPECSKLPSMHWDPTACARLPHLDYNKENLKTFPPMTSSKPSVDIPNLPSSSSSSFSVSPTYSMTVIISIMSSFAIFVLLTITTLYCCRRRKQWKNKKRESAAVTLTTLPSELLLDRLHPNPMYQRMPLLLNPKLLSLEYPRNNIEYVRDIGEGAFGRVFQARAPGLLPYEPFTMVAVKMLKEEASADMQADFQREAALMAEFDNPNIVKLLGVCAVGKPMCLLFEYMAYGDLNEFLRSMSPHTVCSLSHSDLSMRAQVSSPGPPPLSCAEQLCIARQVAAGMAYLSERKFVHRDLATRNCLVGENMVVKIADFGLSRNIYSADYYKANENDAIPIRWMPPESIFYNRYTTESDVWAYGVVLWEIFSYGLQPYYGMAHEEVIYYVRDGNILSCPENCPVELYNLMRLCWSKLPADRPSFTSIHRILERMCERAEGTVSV

[4] = test system: parental Ba/F3 cells that do not express Bcr-Abl; assay: Counterscreen against parental Ba/F3 cells; assay type: cell-based

Chain of TrkA (P04629 33-796): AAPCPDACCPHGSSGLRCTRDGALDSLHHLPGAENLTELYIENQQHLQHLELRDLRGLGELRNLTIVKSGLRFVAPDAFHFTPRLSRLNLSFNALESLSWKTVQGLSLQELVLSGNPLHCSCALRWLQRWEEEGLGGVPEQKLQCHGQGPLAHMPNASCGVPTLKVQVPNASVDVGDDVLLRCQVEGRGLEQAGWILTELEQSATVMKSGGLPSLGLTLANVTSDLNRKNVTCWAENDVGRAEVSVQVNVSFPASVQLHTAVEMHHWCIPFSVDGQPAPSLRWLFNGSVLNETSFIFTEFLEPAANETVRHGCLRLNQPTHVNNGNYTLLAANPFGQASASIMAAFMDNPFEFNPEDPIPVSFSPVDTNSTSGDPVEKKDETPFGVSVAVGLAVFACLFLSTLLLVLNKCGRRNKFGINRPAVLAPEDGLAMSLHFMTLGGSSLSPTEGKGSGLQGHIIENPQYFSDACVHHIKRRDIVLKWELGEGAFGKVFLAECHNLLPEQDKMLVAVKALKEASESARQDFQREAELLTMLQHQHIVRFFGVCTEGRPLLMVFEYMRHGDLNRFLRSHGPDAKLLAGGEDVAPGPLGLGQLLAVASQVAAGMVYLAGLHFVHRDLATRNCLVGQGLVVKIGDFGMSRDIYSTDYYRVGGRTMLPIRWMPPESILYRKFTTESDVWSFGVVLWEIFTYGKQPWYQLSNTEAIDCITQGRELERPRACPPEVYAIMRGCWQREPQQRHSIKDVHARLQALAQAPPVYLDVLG

Structure (SMILES)	phosphorylation of Abl (Tyr412) and STAT5 (Tyr694) [1]	phosphorylation of Abl (Tyr412) and STAT5 (Tyr694) [2]	inhibition of TrkA (TrkA; 50 nM)	number of kinases potently inhibited (>80% inhibition) [3]	inhibition at 0.05 µM (CSF1R) [%]	inhibition of Blk (Blk; 50 nM)	inhibition at 0.05 µM (Yes1) [%]	inhibition of MUSK (MUSK; 50 nM)	window between IC50 values against parental Ba/F3 cells and those expressing Bcr-Abl [4]	inhibition of proliferation of parental Ba/F3 cells ([4]; at concentrations below 1 μM)	inhibition at 0.05 µM (TrkA; read-out: inhibition of TrkA) [%]	inhibition at 0.05 µM (Blk; read-out: inhibition of Blk) [%]	inhibition at 0.05 µM (MUSK; read-out: inhibition of MUSK) [%]
CC(C)n1nc(C#Cc2cccc(O)c2)c2c(N)ncnc21 [Compound 3, 3-((4-Amino-1-isopropyl-1H-pyrazolo[3,4-d]pyrimidin-3-yl)-ethynyl)phenol]	only partially inhibited	only partially inhibited	–	–	–	–	–	–	–	–	–	–	–
CC(C)n1nc(C#Cc2cccc(NC(=O)c3cccc(C(F)(F)F)c3)c2)c2c(N)ncnc21 [Compound 15, N-(3-((4-Amino-1-isopropyl-1H-pyrazolo[3,4-d]pyrimidin-3-yl)-ethynyl)phenyl)-3-(trifluoromethyl)benzamide]	abolished	abolished	not significantly affected	9	40 to 80	not significantly affected	40 to 80	not significantly affected	over 100 fold	do not inhibit	–	–	–
Cc1ccc(C(=O)Nc2ccc(CN3CCN(C)CC3)c(C(F)(F)F)c2)cc1C#Cc1cnc2cccnn12 [Ponatinib, reference compound]	–	–	–	–	> 80	–	> 80	–	–	–	> 80	> 80	> 80
